{
  "source": "patent US8420675B2",
  "about": "“Aminotetrahydroindazoloacetic acids” (Hoffmann-La Roche Inc., priority 2008, dated 2013)",
  "biological_target": "T1, human CRTH2 (Homo sapiens, UniProt Q9Y5Y4)",
  "T1 construct": "expressed in transfected cells",
  "T1 sequence (Q9Y5Y4 1-395)": "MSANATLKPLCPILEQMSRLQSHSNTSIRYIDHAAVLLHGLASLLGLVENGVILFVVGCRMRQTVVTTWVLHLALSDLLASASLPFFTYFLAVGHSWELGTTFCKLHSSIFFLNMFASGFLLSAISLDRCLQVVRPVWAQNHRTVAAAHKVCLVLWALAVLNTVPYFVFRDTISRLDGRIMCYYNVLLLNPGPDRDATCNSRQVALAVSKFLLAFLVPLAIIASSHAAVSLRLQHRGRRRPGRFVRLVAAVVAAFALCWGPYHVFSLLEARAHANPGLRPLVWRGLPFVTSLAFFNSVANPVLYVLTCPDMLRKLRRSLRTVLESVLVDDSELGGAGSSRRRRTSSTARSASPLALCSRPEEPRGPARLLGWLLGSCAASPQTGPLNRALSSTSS",
  "experiment": "Human CRTH2 Receptor Binding Assay (whole cell, [3H]ramatroban competition)",
  "conditions": "CHO-K1 cells expressing human CRTH2 and G-alpha16; 20 nM [3H]ramatroban; 1 hour, room temperature",
  "method_in_brief": "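CHO-K1 cells stably co-expressing human CRTH2 and G-alpha16, 1.5×10^5 per reaction, incubated 1 hour at room temperature with 20 nM [3H]ramatroban in PBS containing 10 mM MgCl2 and 0.06% BSA. Non-specific binding defined with 10 μM 15(R)-15-methyl PGD2. IC50 from 7 concentrations by 4-parameter logistic fit of specific binding inhibition.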",
  "data": [
    {"smiles": "O=C(O)Cn1ncc2c1CCC[C@H]2NS(=O)(=O)c1cnc(Oc2ccccc2Cl)c(Br)c1", "note": "[Example 2-9a, {(R)-4-[5-Bromo-6-(2-chloro-phenoxy)-pyridine-3-sulfonylamino]-4,5,6,7-tetrahydro-indazol-1-yl}-acetic acid]", "values": [
      {"measurement": "IC50", "result": 8.4, "unit": "nM"}
    ]},
    {"smiles": "O=C(O)Cn1ncc2c1CCC[C@H]2NS(=O)(=O)c1ccc(-c2cccc(C(F)(F)F)c2)cc1", "note": "[Example 10-25a, [(R)-4-(3′-Trifluoromethyl-biphenyl-4-sulfonylamino)-4,5,6,7-tetrahydro-indazol-1-yl]-acetic acid]", "values": [
      {"measurement": "IC50", "result": 13.1, "unit": "nM"}
    ]},
    {"smiles": "O=C(O)Cn1ncc2c1CCCC2NS(=O)(=O)c1ccc(Oc2cccc(Cl)c2)cc1", "note": "(centres unmarked) [Example 5-2a, {4-[4-(3-Chloro-phenoxy)-benzenesulfonylamino]-4,5,6,7-tetrahydro-indazol-1-yl}-acetic acid]", "values": [
      {"measurement": "IC50", "result": 202, "unit": "nM"}
    ]},
    {"smiles": "Cc1cc(F)ccc1Oc1ccc(S(=O)(=O)N(C)[C@@H]2CCCc3c2cnn3CC(=O)O)cc1Cl", "note": "[Example 9-38a, ((R)-4-{[3-Chloro-4-(4-fluoro-2-methyl-phenoxy)-benzenesulfonyl]-methyl-amino}-4,5,6,7-tetrahydro-indazol-1-yl)-acetic acid]", "values": [
      {"measurement": "IC50", "result": 8, "unit": "nM"}
    ]},
    {"smiles": "CC(=O)Nc1ccc(Oc2ccc(S(=O)(=O)N(C)[C@@H]3CCCc4c3cnn4CC(=O)O)cc2Cl)cc1", "note": "[Example 9-27a, ((R)-4-{[4-(4-Acetylamino-phenoxy)-3-chloro-benzenesulfonyl]-methyl-amino}-4,5,6,7-tetrahydro-indazol-1-yl)-acetic acid]", "values": [
      {"measurement": "IC50", "result": 49.1, "unit": "nM"}
    ]},
    {"smiles": "CN([C@@H]1CCCc2c1cnn2CC(=O)O)S(=O)(=O)c1ccc(Oc2ccc(F)c(Cl)c2)c(Cl)c1", "note": "[Example 9-24a, ((R)-4-{[3-Chloro-4-(3-chloro-4-fluoro-phenoxy)-benzenesulfonyl]-methyl-amino}-4,5,6,7-tetrahydro-indazol-1-yl)-acetic acid]", "values": [
      {"measurement": "IC50", "result": 16.5, "unit": "nM"}
    ]},
    {"smiles": "CN([C@@H]1CCCc2c1cnn2CC(=O)O)S(=O)(=O)c1cnc(Oc2cc(Cl)cc(Cl)c2)c(Br)c1", "note": "[Example 6-3a, ((R)-4-{[5-Bromo-6-(3,5-dichloro-phenoxy)-pyridine-3-sulfonyl]-methyl-amino}-4,5,6,7-tetrahydro-indazol-1-yl)-acetic acid]", "values": [
      {"measurement": "IC50", "result": 26.5, "unit": "nM"}
    ]},
    {"smiles": "CN([C@@H]1CCCc2c1cnn2CCC(=O)O)S(=O)(=O)c1cc(C(F)(F)F)cc(S(=O)(=O)c2ccc(Cl)cc2)c1", "note": "[Example 13-4a, 3-((R)-4-{[3-(4-Chloro-benzenesulfonyl)-5-trifluoromethyl-benzenesulfonyl]-methyl-amino}-4,5,6,7-tetrahydro-indazol-1-yl)-propionic acid]", "values": [
      {"measurement": "IC50", "result": 2.5, "unit": "nM"}
    ]},
    {"smiles": "O=C(O)Cn1ncc2c1CCC[C@H]2NS(=O)(=O)c1ccc(-c2cccc(Cl)c2)cc1", "note": "[Example 10-13a, [(R)-4-(3′-Chloro-biphenyl-4-sulfonylamino)-4,5,6,7-tetrahydro-indazol-1-yl]-acetic acid]", "values": [
      {"measurement": "IC50", "result": 153, "unit": "nM"}
    ]},
    {"smiles": "O=C(O)Cn1ncc2c1CCCC2NS(=O)(=O)c1cnc(Oc2ccc(C(F)(F)F)cc2)c(Br)c1", "note": "(centres unmarked) [Example 2-7a, {4-[5-Bromo-6-(4-trifluoromethyl-phenoxy)-pyridine-3-sulfonylamino]-4,5,6,7-tetrahydro-indazol-1-yl}-acetic acid]", "values": [
      {"measurement": "IC50", "result": 393, "unit": "nM"}
    ]},
    {"smiles": "O=C(O)Cn1ncc2c1CCCC2NS(=O)(=O)c1cccc(NC(=O)c2ccccc2)c1", "note": "(centres unmarked) [Example 14-1a, [4-(3-Benzoylamino-benzenesulfonylamino)-4,5,6,7-tetrahydro-indazol-1-yl]-acetic acid]", "values": [
      {"measurement": "IC50", "result": 356, "unit": "nM"}
    ]}
  ]
}
